Laboratory results taken from patent US20100004284A1, “Novel Heterocyclic Compounds as Positive Allosteric Modulators of Metabotropic Glutamate Receptors” (ADDEX PHARMA SA, priority 2005, published 2010).

Tests used:
[1] = biological target: T1, rat mGluR5 (Rattus norvegicus, UniProt P31424); assay: mGluR5 assay on HEK-expressing rat mGluR5 (fluorescent cell based Ca2+ mobilization assay); conditions: HEK-293 cells stably expressing rat mGluR5; no co-addition of glutamate; mean of at least three independent experiments in duplicate; read-out: Ca++ Flux (mean EC50)
T1 construct: expressed in transfected cells
T1 sequence (P31424 21-1171 isoform P31424-2 limits assumed): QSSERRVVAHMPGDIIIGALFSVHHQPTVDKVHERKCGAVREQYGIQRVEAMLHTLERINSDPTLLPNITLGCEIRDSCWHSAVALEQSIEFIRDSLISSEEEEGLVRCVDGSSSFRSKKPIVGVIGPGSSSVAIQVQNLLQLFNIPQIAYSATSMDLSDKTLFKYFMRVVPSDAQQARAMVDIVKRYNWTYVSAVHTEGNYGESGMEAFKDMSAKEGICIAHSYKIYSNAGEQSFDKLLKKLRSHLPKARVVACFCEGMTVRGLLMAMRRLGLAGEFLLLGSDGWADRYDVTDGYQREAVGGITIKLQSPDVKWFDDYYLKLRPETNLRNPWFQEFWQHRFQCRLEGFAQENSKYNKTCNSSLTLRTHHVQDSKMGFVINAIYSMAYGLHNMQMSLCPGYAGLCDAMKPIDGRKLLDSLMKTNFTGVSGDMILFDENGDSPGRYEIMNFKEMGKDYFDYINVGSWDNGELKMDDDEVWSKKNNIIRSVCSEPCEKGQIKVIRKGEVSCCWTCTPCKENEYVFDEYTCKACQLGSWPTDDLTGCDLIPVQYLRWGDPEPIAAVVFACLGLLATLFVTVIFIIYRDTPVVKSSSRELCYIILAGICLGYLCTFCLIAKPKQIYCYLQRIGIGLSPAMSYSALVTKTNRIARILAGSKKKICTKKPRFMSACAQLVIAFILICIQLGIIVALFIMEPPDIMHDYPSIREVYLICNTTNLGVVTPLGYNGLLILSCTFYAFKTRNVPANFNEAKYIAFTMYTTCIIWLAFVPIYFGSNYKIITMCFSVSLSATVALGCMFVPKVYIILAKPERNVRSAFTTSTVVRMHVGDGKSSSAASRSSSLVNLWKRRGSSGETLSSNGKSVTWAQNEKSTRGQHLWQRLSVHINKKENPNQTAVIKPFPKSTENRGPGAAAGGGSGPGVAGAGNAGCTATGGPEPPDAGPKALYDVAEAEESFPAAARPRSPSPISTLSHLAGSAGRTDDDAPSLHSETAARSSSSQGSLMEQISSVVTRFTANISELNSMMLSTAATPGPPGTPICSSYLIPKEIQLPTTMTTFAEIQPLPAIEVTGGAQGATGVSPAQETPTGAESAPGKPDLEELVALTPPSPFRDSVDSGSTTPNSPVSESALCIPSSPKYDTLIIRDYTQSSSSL
Protocol: Positive functional expression of HEK-293 cells stably expressing rat mGluR5 receptor was determined by measuring intracellular Ca^2+ changes using a Fluorometric Imaging Plate Reader (FLIPR, Molecular Devices, Sunnyvale, Calif.) in response to glutamate or selective known mGluR5 agonists and antagonists. Rat mGluR5RT-PCR products in HEK-293 cells were sequenced and found 100% identical to rat mGluR5Genbank reference sequence (NM_017012). HEK-293 cells expressing rmGluR5 were maintained in media containing DMEM, dialyzed Fetal Bovine Serum (10%), Glutamax™ (2 mM), Penicillin (100 units/ml), Streptomycin (100 μg/ml), Geneticin (100 μg/ml) and Hygromycin-B (40 μg/ml) at 37° C./5% CO2.
After one day of incubation, cells were washed with assay buffer containing: 142 mM NaCl, 6 mM KCl, 1 mM […], 1 mM CaCl2, 20 mM HEPES, 1 g/L glucose, 0.125 mM sulfinpyrazone, pH 7.4. After 60 min of loading with 4 uM Fluo-4 (TefLabs, Austin, Tex.), the cells were washed three times with 50 μl of PBS Buffer and resuspended in 45 μl of assay Buffer. The plates were then transferred to a Fluorometric Imaging Plate Reader (FLIPR, Molecular Devices, Sunnyvale, Calif.) for the assessment of intracellular calcium flux. After monitoring the baseline fluorescence for 10 seconds, increasing concentrations of representative compound (from 0.01 to 60 μM) of the present invention diluted in Assay Buffer (15 μl of 4× dilutions) was added to the cell. The final DMSO concentration in the assay was 0.3%. In each experiment, fluorescence was then monitored as a function of time for 3 minutes and the data analyzed using Microsoft Excel and GraphPad Prism. Each data point was also measured two times.
Under these experimental conditions, this HEK-rat mGluR5 cell line is able to directly detect positive allosteric modulators without the need of co-addition of glutamate or mGluR5 agonist.
The concentration-response curves of representative compounds of the present invention were generated using the Prism GraphPad software (Graph Pad Inc, San Diego, USA). The curves were fitted to a four-parameter logistic equation:
(Y=Bottom+(Top−Bottom)/(1+10̂((Log EC50−X)*Hill Slope)
allowing determination of EC50 values.
The Table 5 below represents the mean EC50 obtained from at least three independent experiments of selected molecules performed in duplicate.

[2] = biological target: T2, mGluR5 (Rattus norvegicus, UniProt P31424); assay: mGluR5 binding assay ([3H]-MPEP radioligand binding, rat brain membranes); conditions: 3 nM [3H]-MPEP, 1 h at 4° C., read-out: IC50, inhibition of [3H]-MPEP binding
T2 construct: positive allosteric modulators of mGluR5 receptors in native preparations; endogenous in cells; host or cells: primary cortical astrocytes from Sprague-Dawley rat embryos (E16-19)
T2 sequence (P31424 21-1203): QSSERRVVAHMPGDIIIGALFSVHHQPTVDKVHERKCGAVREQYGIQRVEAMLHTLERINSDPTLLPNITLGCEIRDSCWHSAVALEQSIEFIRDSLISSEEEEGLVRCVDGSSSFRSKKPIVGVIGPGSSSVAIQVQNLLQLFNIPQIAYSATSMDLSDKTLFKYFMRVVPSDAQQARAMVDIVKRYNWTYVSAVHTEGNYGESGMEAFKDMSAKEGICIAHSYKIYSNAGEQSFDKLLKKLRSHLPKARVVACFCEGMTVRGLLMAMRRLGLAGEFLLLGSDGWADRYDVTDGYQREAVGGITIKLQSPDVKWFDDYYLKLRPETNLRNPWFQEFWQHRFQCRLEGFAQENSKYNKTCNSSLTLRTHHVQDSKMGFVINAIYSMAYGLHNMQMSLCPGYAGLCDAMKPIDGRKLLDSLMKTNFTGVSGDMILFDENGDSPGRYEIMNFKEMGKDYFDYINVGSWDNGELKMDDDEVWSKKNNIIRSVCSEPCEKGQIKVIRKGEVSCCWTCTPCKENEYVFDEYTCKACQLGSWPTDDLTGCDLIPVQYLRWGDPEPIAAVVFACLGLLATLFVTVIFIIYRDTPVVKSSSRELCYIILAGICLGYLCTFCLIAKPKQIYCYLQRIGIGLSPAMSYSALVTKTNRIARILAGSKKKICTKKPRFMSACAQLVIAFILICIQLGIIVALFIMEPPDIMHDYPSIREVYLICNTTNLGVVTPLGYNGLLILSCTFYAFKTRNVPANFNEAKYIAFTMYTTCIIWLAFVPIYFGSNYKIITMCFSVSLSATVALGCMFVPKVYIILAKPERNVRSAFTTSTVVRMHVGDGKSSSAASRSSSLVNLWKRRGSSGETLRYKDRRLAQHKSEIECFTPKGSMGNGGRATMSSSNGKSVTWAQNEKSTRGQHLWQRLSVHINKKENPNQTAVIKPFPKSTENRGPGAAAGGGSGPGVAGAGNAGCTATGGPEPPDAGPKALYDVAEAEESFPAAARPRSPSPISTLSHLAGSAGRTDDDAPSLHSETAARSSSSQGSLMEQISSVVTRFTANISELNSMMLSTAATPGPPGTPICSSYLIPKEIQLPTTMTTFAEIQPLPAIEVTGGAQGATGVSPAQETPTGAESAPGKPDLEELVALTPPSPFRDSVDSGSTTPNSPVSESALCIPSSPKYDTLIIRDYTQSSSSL
Source text: Activity of compounds of the invention was examined following a radioligand binding technique using whole rat brain and tritiated 2-methyl-6-(phenylethynyl)-pyridine ([^3H]-MPEP) as a ligand following similar methods than those described in Gasparini et al. (2002) Bioorg. Med. Chem. Lett. 12:407-409 and in Anderson et al. (2002) J. Pharmacol. Exp. Ther. 303 (3) 1044-1051.
Cortices were dissected out from brains of 200-300 g Sprague-Dawley rats (Charles River Laboratories, L'Arbresle, France). Tissues were homogenized in 10 volumes (vol/wt) of ice-cold 50 mM HEPES-NaOH (pH 7.4) using a Polytron disrupter (Kinematica AG, Luzern, Switzerland) and centrifuged for 30 min at 40,000 g. (4° C.). […] Protein concentration was determined by the Bradford method (Bio-Rad protein assay, Reinach, Switzerland) with bovine serum albumin as standard.
Membranes were thawed and resuspended in binding buffer containing 20 mM HEPES-NaOH, 3 mM MgCl2, 3 mM CaCl2, 100 mM NaCl, pH 7.4. […] Radioactivity was determined by liquid scintillation spectrometry using a 96-well plate reader (TopCount, Perkin-Elmer, Downers Grove, USA).
The inhibition curves were generated using the Prism GraphPad program (Graph Pad Software Inc, San Diego, USA). […] The mean of IC50 obtained from at least three independent experiments of selected molecules performed in duplicate were calculated.

An EC50 [1] of less than 1 µM and an IC50 [2] of less than 30 µM were found for `O=C(c1ccc(F)cc1)N1CCC[C@H](c2nc(Cc3ccc(F)cc3)no2)C1` [Example 1, {(S)-3-[3-(4-Fluoro-benzyl)-[1,2,4]oxadiazol-5-yl]-piperidin-1-yl}-(4-fluoro-phenyl)-methanone] in this work.
